According to patent US6645966B2, “Treatment of malaria with farnesyl protein transferase inhibitors” (Schering Corporation, priority 2001, dated 2003):
Where two headings read alike, the source gives them in different places.

Key:
[1] = system: P. falciparum (strain C10, partially chloroquine resistant strain); assay: In Vitro Plasmodium falciparum Growth Inhibition Assay ([3H]-hypoxanthine uptake into infected erythrocytes); assay type: cell-based; details: Erythrocyte
Experimental: The growth activity of P. falciparum was determined by measuring the uptake of the radiolabeled nucleic acid precursor [3H]-hypoxanthine from the media into infected erythrocytes by a method similar to that reported by Jomaa et al (1999). In this method human red blood cells (RBC) were infected with P. falciparum (strain C10, partially chloroquine resistant strain) to 0.4% parasitemia (0.4% of the RBC contain at least 1 parasite). The infected human RBC cells were adjusted to a hematocrit of 2% and 200 μl was plated into 96 well plates. DMSO solutions of inhibitors were added to the plates to make final concentrations of inhibitors from 20 μM to 0.2 μM and a final concentration of DMSO between 0.2 and 1%. The inhibitor-RBC solutions were incubated for 48 hours followed by the addition of [3H]-hypoxanthine to each well and further incubated for 24 hours. The incorporation of [3H]-hypoxanthine into the parasite DNA was measured by acid precipitating the nucleic acid content onto filters, washing the filters and counting the incorporated radioactivity in a scintillation counter.

| melting point | Structure (SMILES) | also measured |
| --- | --- | --- |
| 80 °C (dec.) | N#Cc1ccc(Cn2cncc2CCNC(=O)[C@H]2CN(Cc3ccncc3)CCN2C(=O)NC2CCCCC2)cc1 | – |
| 71 to 75 °C | Clc1ccc2c(c1)CCc1cccnc1C2N1CCC[C@H](Cn2ccnc2)C1 (single isomer, unassigned) | – |
| – | CCN(CC)CCCC(C)Nc1ccnc2cc(Cl)ccc12 (stereo not shown) [chloroquine] | EC50 ([1]; read-out: ED50): 260 nM |
| – | O=CN(O)CCCP(=O)(O)O [fosmidomycin] | EC50 ([1]; P. falciparum strain C10 in infected human RBC, 0.4% parasitemia, 48 hours incubation then [3H]-hypoxanthine for 24 hours, read-out: ED50 (the source's name)): 600 nM |
